Test results taken from patent US11518779B2, “Inhibitors of DNMT1 as anticancer therapeutic agents” (Victoria Link Limited, priority 2018, dated 2022).

Biological target: DNMT1 (Homo sapiens, UniProt P26358)
Assay: DNMT1 inhibition assay (transfer of radioactivity from [Me-3H]-SAM to hemimethylated double-stranded DNA)
Assay type: biochemical
Conditions: 100 nM DNMT1, 1 μM [Me-3H]-SAM, 1 μM 26 bp hemimethylated DNA substrate, 37° C., 2 hours
Description: Human DNMT1 C-terminal catalytic domain gene was codon-optimised for E. coli by DNA2.0. The gene was cloned into the pD431-SR vector, KanR resistance, inducible by IPTG. The codon-optimisation gave yields 5 to 10 times greater than previously published reports (e.g. Song, J., Rechkoblit, O., Bestor, T. H., and Patel, D. J., (2011) Science 331(6020): 1036-1040; and Song, 3., Teplova, M., Ishibe-Murakami, S., and Patel, D. J., (2012) Science 335(6069): 709-712). The protein construct has N-terminal His-tag, a SUMO tag, a SUMO protease cleavage site, and the DNMT-catalytic domain.
DNMT1 inhibitors were assayed by measuring the transfer of radioactivity from tritiated S-adenosylmethionine (SAM) to double-stranded DNA (Du, Q., Z. Wang, Z., and Schramm, V. L., Proc. Natl. Acad. Sci. USA, 2016, 113, 2916-2921). The double stranded DNA molecule contains exactly one hemimethylated CpG located in the centre of the sequence. The design allows one methylation occurrence per DNA molecule, preventing any processive methylation along or across the strand.
[Me-^3H] S-Adenosyl methionine ([Me-^3H]-SAM) was enzymatically synthesized using bacterial chlorinase (SaIL) enzyme (Nat Chem Biol. 2008 Jan.; 4 (1):69-74. Epub 2007 Dec. 2. Discovery and characterization of a marine bacterial SAM-dependent chlorinase. Eustáquio AS^1, Pojer F, Noel J P, Moore B S.), starting from 5′-Chloro-5′-deoxyadenosine and L-[Methyl-^3H]-Methionine (Org Biomol Chem. 2016 Jul. 14; 14(26):6189-92. doi: 10.1039/c6ob00844e. Epub 2016 Jun. 6. Chemoenzymatic synthesis and utilization of a SAM analog with an isomorphic nucleobase. Vranken C^1, Fin A, Tufar P, Hofkens J, Burkart M D, Tor Y.). A reaction (500 μL) containing 500 μCi L-[Methyl-3H]-Methionine (PerkinElmer), 0.3 mM unlabeled methionine, 1 mM 5′-Chloro-5′-deoxyadenosine, 50 mM phosphate buffer pH 7.6 and 20 μM SaIL enzyme was incubated at room temperature. After 2 hours of incubation, reaction was stopped using 50 mM sulfuric acid. The [Me-^3H]-SAM was purified using C-18 reverse-phase HPLC using a gradient (buffer A: 50 mM ammonium acetate pH 4.3; buffer B: 0.1% acetic acid and 50% acetonitrile). The fractions containing [Me-^3H]-SAM were pooled and lyophilized overnight. Purified [Me-^3H]-SAM was always kept frozen at −80° C. until further use.
The DNMT1 assays were carried to determine the IC50 with transition state analogs. The reaction (100 μL) containing 50 mM Tris-HCl pH 8.0, 100 mM KCl, 50 ug/mL BSA, 2 mM DTT, 1 μM freshly prepared [Me-3H]-SAM, 1 μM 26 bp hemimethylated DNA substrate and varying concentrations of each inhibitor ([…]), incubated at 37° C. with 100 nM DNMT1. The reaction fractions (50 μL) were taken at 2 hours. The methylated DNA was purified by using Micro Bio-spin P-30 columns (Bio-Rad). Purified samples were mixed with 10 mL of scintillation liquid (PerkinElmer), and counted for radioactivity in a Tricarb 2910 TR scintillation counter (PerkinElmer). The values obtained in the absence of DNMT1 in the reaction were used as controls. The assay data were analyzed using GraphPad Prism for IC50 calculations. The hemimethylated DNA sequences used in the assays contained 26 bp, as follows: 26a oligo 5′-[…]-3′ [SEQ ID No. 1], and 26bm oligo 5′-ACTCATACCAAT/iMe-dC/GATACCAAGGTAG-3′ [SEQ ID No. 2], where iMe-dC is a 5-methyl-C base.
IC50 values were obtained from plots of percent inhibition versus inhibitor concentration.

Chain of DNMT1 (P26358 whole entry, looked up): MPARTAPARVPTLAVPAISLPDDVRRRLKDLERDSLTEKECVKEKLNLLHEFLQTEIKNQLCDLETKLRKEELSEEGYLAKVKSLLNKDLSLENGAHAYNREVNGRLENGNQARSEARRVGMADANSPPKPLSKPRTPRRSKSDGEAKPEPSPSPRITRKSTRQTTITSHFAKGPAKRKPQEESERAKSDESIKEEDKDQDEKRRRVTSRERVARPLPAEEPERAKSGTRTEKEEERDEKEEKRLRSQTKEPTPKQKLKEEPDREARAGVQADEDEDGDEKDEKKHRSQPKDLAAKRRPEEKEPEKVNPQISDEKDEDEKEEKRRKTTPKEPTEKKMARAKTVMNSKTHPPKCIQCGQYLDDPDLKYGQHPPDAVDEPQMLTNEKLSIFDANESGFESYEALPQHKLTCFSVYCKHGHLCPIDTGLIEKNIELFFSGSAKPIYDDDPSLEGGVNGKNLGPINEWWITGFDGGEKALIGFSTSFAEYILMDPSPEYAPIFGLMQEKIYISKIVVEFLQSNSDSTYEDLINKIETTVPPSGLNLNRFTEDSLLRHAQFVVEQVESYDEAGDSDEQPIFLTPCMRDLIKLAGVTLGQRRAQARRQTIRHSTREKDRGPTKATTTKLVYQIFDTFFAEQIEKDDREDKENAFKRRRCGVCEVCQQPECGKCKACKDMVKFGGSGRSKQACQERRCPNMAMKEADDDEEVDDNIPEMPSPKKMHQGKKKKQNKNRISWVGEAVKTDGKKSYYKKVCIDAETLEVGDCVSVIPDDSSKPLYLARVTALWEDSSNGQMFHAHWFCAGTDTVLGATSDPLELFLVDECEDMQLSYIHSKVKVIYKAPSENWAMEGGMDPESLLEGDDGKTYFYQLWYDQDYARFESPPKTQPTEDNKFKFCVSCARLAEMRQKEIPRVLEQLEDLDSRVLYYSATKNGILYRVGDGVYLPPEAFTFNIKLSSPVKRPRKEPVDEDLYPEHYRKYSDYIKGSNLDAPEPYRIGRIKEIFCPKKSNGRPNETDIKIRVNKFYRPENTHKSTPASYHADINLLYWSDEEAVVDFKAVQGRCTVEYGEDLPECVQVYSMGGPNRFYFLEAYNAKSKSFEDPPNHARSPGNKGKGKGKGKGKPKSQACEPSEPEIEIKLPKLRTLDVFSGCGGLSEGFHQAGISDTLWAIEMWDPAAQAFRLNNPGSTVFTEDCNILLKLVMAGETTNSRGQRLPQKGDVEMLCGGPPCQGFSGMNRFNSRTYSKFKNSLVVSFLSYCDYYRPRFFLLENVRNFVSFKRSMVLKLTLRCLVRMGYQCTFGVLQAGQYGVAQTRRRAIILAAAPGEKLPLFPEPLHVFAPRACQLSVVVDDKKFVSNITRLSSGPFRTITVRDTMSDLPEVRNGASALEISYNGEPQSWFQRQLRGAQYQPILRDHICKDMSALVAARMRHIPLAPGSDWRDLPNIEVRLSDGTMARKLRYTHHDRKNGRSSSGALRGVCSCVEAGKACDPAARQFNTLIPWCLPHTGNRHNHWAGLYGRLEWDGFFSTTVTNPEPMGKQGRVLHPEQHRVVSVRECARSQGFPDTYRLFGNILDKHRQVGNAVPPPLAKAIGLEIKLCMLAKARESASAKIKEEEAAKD

| IC50 [µM] | SMILES |
| --- | --- |
| 15.4 ± 6.2 | Nc1nc(=O)n(C2C[C@H](O)[C@@H](CO)O2)cc1SCCN(CC[C@H](N)C(=O)O)C[C@H]1O[C@@H](n2cnc3c(N)ncnc32)[C@H](O)[C@@H]1O (stereo in doubt) [Compound 42, (S)-2-amino-4-((2-((4-amino-1-((2S,4S,5R)-4-hydroxy-5-(hydroxymethyl)tetrahydrofuran-2-yl)-2-oxo-1,2-dihydropyrimidin-5-yl)thio)ethyl)(((2R,3S,4R,5R)-5-(6-amino-9H-purin-9-yl)-3,4-dihydroxytetrahydrofuran-2-yl)methyl)amino)butanoic acid] |
| 1.9 ± 0.1 | Nc1nc(=O)n(C2C[C@H](O)[C@@H](CO)O2)cc1CCN(CC[C@H](N)C(=O)O)C[C@H]1O[C@@H](n2cnc3c(N)ncnc32)[C@H](O)[C@@H]1O (stereo in doubt) [Compound 56, (S)-2-amino-4-((2-(4-amino-1-((2S,4S,5R)-4-hydroxy-5-(hydroxymethyl)tetrahydrofuran-2-yl)-2-oxo-1,2-dihydropyrimidin-5-yl)ethyl)(((2R,3S,4R,5R)-5-(6-amino-9H-purin-9-yl)-3,4-dihydroxytetrahydrofuran-2-yl)methyl)amino)butanoic acid] |

Further lines, the compound ahead of its results:

| SMILES | IC50 [µM] |
| --- | --- |
| Nc1nc(=O)n(C2C[C@H](O)[C@@H](CO)O2)cc1CCCN(CC[C@H](N)C(=O)O)C[C@H]1O[C@@H](n2cnc3c(N)ncnc32)[C@H](O)[C@@H]1O (stereo in doubt) [Compound 33, (S)-2-amino-4-((3-(4-amino-1-((2S,4S,5R)-4-hydroxy-5-(hydroxymethyl)tetrahydrofuran-2-yl)-2-oxo-1,2-dihydropyrimidin-5-yl)propyl)(((2R,3S,4R,5R)-5-(6-amino-9H-purin-9-yl)-3,4-dihydroxytetrahydrofuran-2-yl)methyl)amino)butanoic acid] | 0.8 ± 0.1 |
| Nc1nc(=O)n([C@H]2C[C@H](O)[C@@H](CO)O2)cc1CN(CC[C@H](N)C(=O)O)C[C@H]1O[C@@H](n2cnc3c(N)ncnc32)[C@H](O)[C@@H]1O [Compound 7, (S)-2-amino-4-(((4-amino-1-((2R,4S,5R)-4-hydroxy-5-(hydroxymethyl)tetrahydrofuran-2-yl)-2-oxo-1,2-dihydropyrimidin-5-yl)methyl)(((2R,3S,4R,5R)-5-(6-amino-9H-purin-9-yl)-3,4-dihydroxytetrahydrofuran-2-yl)methyl)amino)butanoic acid] | 0.7 ± 0.1 |
| Nc1nc(=O)n([C@H]2C[C@H](O)[C@@H](CO)O2)cc1CNCC(CC[C@H](N)C(=O)O)C[C@H]1O[C@@H](n2cnc3c(N)ncnc32)[C@H](O)[C@@H]1O (stereo partly drawn) [Compound 70, 2-amino-5-[[[4-amino-1-[(2R,4S,5R)-4-hydroxy-5-(hydroxymethyl)tetrahydrofuran-2-yl]-2-oxo-pyrimidin-5-yl]methylamino]methyl]-6-[(2R,3S,4R,5R)-5-(6-aminopurin-9-yl)-3,4-dihydroxy-tetrahydrofuran-2-yl]hexanoic acid] | 2.2 ± 0.5 |
| NC1=NC(=O)N([C@H]2C[C@H](O)[C@@H](CO)O2)CN1CCCCCN(CC[C@H](N)C(=O)O)C[C@H]1O[C@@H](n2cnc3c(N)ncnc32)[C@H](O)[C@@H]1O [Compound 86, (S)-2-amino-4-((5-(6-amino-3-((2R,4S,5R)-4-hydroxy-5-(hydroxymethyl)tetrahydrofuran-2-yl)-4-oxo-3,4-dihydro-1,3,5-triazin-1(2H)-yl)pentyl)(((2R,3S,4R,5R)-5-(6-amino-9H-purin-9-yl)-3,4-dihydroxytetrahydrofuran-2-yl)methyl)amino)butanoic acid] | 6 ± 1.8 |
